ChEMBL document CHEMBL5325462, “Regioselective synthesis and in vitro cytotoxicity evaluation of 3-thiooxindole derivatives: Tubulin polymerization inhibition and apoptosis inducing studies” (Bioorg Med Chem, 2023)
Active and inactive are the calls of the source. The rule behind the calls is not given here.

Legend:
[1] = system: SK-MEL-28; assay: Cytotoxicity against human SK-MEL-28 cells assessed as inhibition of cell growth measured after 72 hrs by MTT assay; type: functional, cell-based; settings: SK-MEL-28, 72 h
[2] = system: HCT-116; assay: Cytotoxicity against human HCT-116 cells assessed as inhibition of cell growth measured after 72 hrs by MTT assay; type: functional, cell-based; settings: HCT-116, 72 h
[3] = system: MCF7; assay: Cytotoxicity against human MCF7 cells assessed as inhibition of cell growth measured after 72 hrs by MTT assay; type: functional, cell-based; settings: MCF7, 72 h
[4] = system: A549; assay: Cytotoxicity against human A549 cells assessed as inhibition of cell growth measured after 72 hrs by MTT assay; type: functional, cell-based; settings: A549, 72 h
[5] = Cytotoxicity against rat NRK cells assessed as inhibition of cell growth measured after 72 hrs by MTT assay; type: toxicity, cell-based
[6] = system: BT-474; assay: Cytotoxicity against human BT-474 cells assessed as inhibition of cell growth measured after 72 hrs by MTT assay; type: functional, cell-based; settings: BT-474, 72 h
[7] = system: HCT-116; assay: Induction of ROS production in human HCT-116 cells at 3.36 uM incubated for 72 hrs by DCFDA staining based fluorescence microscopic analysis; type: functional, cell-based
[8] = system: HCT-116; assay: Induction of nuclear morphological changes in human HCT-116 cells assessed as horseshoe shaped nuclei formation measured after 48 hrs by DAPI-staining based fluorescence microscopic analysis; type: functional, cell-based
[9] = system: HCT-116; assay: Induction of apoptosis in human HCT-116 cells assessed as reduction in cell viability at 3.36 to 13.46 uM measured after 48 hrs by phase contrast microscope; type: functional, cell-based; settings: dose 3.36-13.46 µM
[10] = system: HCT-116; assay: Inhibition of cell invasion in human HCT-116 cells at 3.36 to 13.46 uM measured after 48 hrs by phase contrast microscopic analysis; type: functional, cell-based; settings: dose 3.36-13.46 µM
[11] = system: HCT-116; assay: Induction of nuclear morphological changes in human HCT-116 cells assessed as change in nuclear shape measured after 48 hrs by DAPI-staining based fluorescence microscopic analysis; type: functional, cell-based
[12] = system: HCT-116; assay: Induction of morphological changes in human HCT-116 cells assessed as formation of apoptotic bodies incubated for 24 hrs by acridine orange/ethidium bromide staining based fluorescence microscopic analysis; type: functional, cell-based
[13] = system: HCT-116; assay: Induction of nuclear morphological changes in human HCT-116 cells assessed as change in nuclear condensation measured after 48 hrs by DAPI-staining based fluorescence microscopic analysis; type: functional, cell-based
[14] = system: HCT-116; assay: Induction of morphological changes in human HCT-116 cells assessed as cell nucleus shrinkage at 3.36 to 13.46 uM measured after 48 hrs by phase contrast microscope; type: functional, cell-based; settings: dose 3.36-13.46 µM
[15] = system: HCT-116; assay: Induction of morphological changes in human HCT-116 cells assessed as cell detachment at 3.36 to 13.46 uM measured after 48 hrs by phase contrast microscope; type: functional, cell-based; settings: dose 3.36-13.46 µM
[16] = system: HCT-116; assay: Induction of morphological changes in human HCT-116 cells assessed as formation of necrotic bodies incubated for 24 hrs by acridine orange/ethidium bromide staining based fluorescence microscopic analysis; type: functional, cell-based

Row | Compound | IC50 [1] [µM] | IC50 [2] [µM] | IC50 [3] [µM] | IC50 [4] [µM] | IC50 at 72 h [5] [µM] | IC50 [6] [µM] | Activity [7] | Activity [8] | Activity [9] | inhibition [10] | Activity [11] | Activity [12] | Activity [13] | Activity [14] | Activity [15] | Activity [16]
1 | Cc1ccc(CN2C(=O)C(CNS(=O)(=O)C(C)(C)C)(Sc3nc4ccccc4[nH]3)c3ccccc32)cc1 (stereo unspecified) | 33.6 | 8.96 | 13.9 | 13.2 | 21.8 | 13.3 | – | – | – | – | – | – | – | – | – | –
2 | Cc1ccc2c(c1)C(CNS(=O)(=O)C(C)(C)C)(Sc1nc3ccccc3s1)C(=O)N2C (stereo unspecified) | 23.6 | 8.99 | 17.2 | 18.2 | 26.8 | 13.2 | – | – | – | – | – | – | – | – | – | –
3 | CN1C(=O)C(CNS(=O)(=O)C(C)(C)C)(Sc2nc3ccccc3[nH]2)c2cc(Br)ccc21 (stereo unspecified) | 16.8 | 12.3 | 12.8 | 18.2 | 25.7 | 13.1 | – | – | – | – | – | – | – | – | – | –
4 | CC(C)(C)S(=O)(=O)NCC1(Sc2nnc(-c3cccc(Br)c3)o2)C(=O)N(Cc2ccccc2)c2ccccc21 (stereo unspecified) | 12.6 | 12.1 | 12.8 | 12.1 | 14.1 | 12.7 | – | – | – | – | – | – | – | – | – | –
5 | CC(C)(C)S(=O)(=O)NCC1(Sc2nnc(-c3ccccc3)o2)C(=O)N(Cc2ccccc2)c2ccc(F)cc21 (stereo unspecified) | 30.4 | > 50 | 40.4 | 37.8 | 33.3 | 16.7 | – | – | – | – | – | – | – | – | – | –
6 | CC(C)(C)S(=O)(=O)NCC1(Sc2nc3ccccc3[nH]2)C(=O)N(Cc2ccccc2)c2ccccc21 (stereo unspecified) | 22.3 | 43.1 | > 50 | 31.2 | 17.9 | 15.2 | – | – | – | – | – | – | – | – | – | –
7 | O=c1[nH]cc(F)c(=O)[nH]1 [FLUOROURACIL] | – | 16.6 | 24.8 | 25.4 | – | – | – | – | – | – | – | – | – | – | – | –
8 | Cc1ccc(CN2C(=O)C(CNS(=O)(=O)C(C)(C)C)(Sc3nnc(-c4ccccc4)o3)c3ccccc32)cc1 (stereo unspecified) | 17.1 | 6.73 | 13.9 | 14.2 | 18 | 12.3 | Active | Dose-Dependent Effect | Active | Active | Dose-Dependent Effect | Dose-Dependent Effect | Dose-Dependent Effect | Active | Active | Active
9 | Cc1ccc2c(c1)C(CNS(=O)(=O)C(C)(C)C)(Sc1nnc(-c3ccccc3)o1)C(=O)N2Cc1ccccc1 (stereo unspecified) | 15.6 | > 50 | 34.3 | > 50 | 12.7 | 23.6 | – | – | – | – | – | – | – | – | – | –
10 | COc1cccc(-c2nnc(SC3(CNS(=O)(=O)C(C)(C)C)C(=O)N(Cc4ccc(Br)cc4)c4ccccc43)n2-c2ccccc2)c1 (stereo unspecified) | 26.1 | > 50 | 35.8 | > 50 | 21.8 | 13.8 | – | – | – | – | – | – | – | – | – | –
11 | CC(C)(C)S(=O)(=O)NCC1(Sc2nnc(-c3ccccc3)o2)C(=O)N(Cc2ccccc2)c2ccccc21 (stereo unspecified) | 17.7 | 15.4 | 15.5 | 14.2 | 31.9 | 14.5 | – | – | – | – | – | – | – | – | – | –
12 | COc1cccc(-c2nnc(SC3(CNS(=O)(=O)C(C)(C)C)C(=O)N(Cc4ccccc4)c4ccccc43)o2)c1 (stereo unspecified) | 15.3 | > 50 | > 50 | 30.7 | 22.9 | 14 | – | – | – | – | – | – | – | – | – | –
13 | CC(C)(C)S(=O)(=O)NCC1(Sc2nnc(-c3ccc(Cl)cc3)n2-c2ccccc2)C(=O)N(Cc2ccccc2)c2ccccc21 (stereo unspecified) | > 50 | > 50 | 45 | > 50 | 24.8 | 16 | – | – | – | – | – | – | – | – | – | –
14 | CC(C)(C)S(=O)(=O)NCC1(Sc2nnc(-c3ccc(Cl)c(Cl)c3)o2)C(=O)N(Cc2ccc(Br)cc2)c2ccccc21 (stereo unspecified) | 13.7 | > 50 | > 50 | 41.7 | 21.9 | 15.3 | – | – | – | – | – | – | – | – | – | –
